One series has as its system recombinant NL4-3 virus. Kind of series: HIV cell culture assay (antiviral activity, luciferase readout). Format: cell-based. As to conditions: Human immunodeficiency virus 1, NL43, MT2, MT-2 cells infected for 4-5 days with recombinant NL4-3 virus carrying Renilla luciferase. On the procedure: HIV cell culture assay—MT-2 cells, 293T cells and the proviral DNA clone of NL4-3 virus were obtained from the NIH AIDS Research and Reference Reagent Program. MT-2 cells were propagated in RPMI 1640 media supplemented with 10% heat inactivated fetal bovine serum (FBS), […]. The 293T cells were propagated in DMEM media supplemented with 10% heat inactivated FBS, […]. A recombinant NL4-3 proviral clone, in which a section of the nef gene was replaced with the Renilla luciferase gene, was used to make the reference virus used in these studies. The recombinant virus was prepared through transfection of the recombinant NL4-3 proviral clone into 293T cells using Transit-293 Transfection Reagent from Mirus Bio LLC (Madison, WI). Supernatent was harvested after 2-3 days and the amount of virus present was titered in MT-2 cells using luciferase enzyme activity as a marker by measuring luciferase enzyme activity. Luciferase was quantitated using the EnduRen Live Cell Substrate from Promega (Madison, Wis.). Antiviral activities of compounds toward the recombinant virus were quantified by measuring luciferase activity in MT-2 cells infected for 4-5 days with the recombinant virus in the presence of serial dilutions of the compound.
The 50% effective concentration (EC50) was calculated by using the exponential form of the median effect equation where (Fa)=1/[1+(ED50/drug conc.)m] (Johnson VA, Byington RT. Infectivity Assay. In Techniques in HIV Research. ed. Aldovini A, Walker BD. 71-76. New York: Stockton Press. 1990). The 50% inhibitory concentration (EC50) was calculated by using the exponential form of the median effect equation where percent inhibition=1/[1+(EC50/drug concentration)m], where m is a parameter that reflects the slope of the concentration-response curve.

The nature of series [1]: Compound cytotoxicity, XTT-based colorimetric assay. Conditions: human; uninfected MT2 cells, day 4, XTT assay. Format: cell-based. As to the method:
Compound cytotoxicity and the corresponding CC50 values were determined using the same protocol as described in the antiviral assay except that uninfected cells were used. Cytotoxicity was assessed on day 4 in uninfected MT2 cells by using a XTT (2,3-bis[2-Methoxy-4-nitro-5-sulfophenyl]-2H-tetrazolium-5-carboxyanilide inner salt)-based colorimetric assay (Sigma-Aldrich, St Louis, Mo.).

Each structure is given as a SMILES string.

For the compound `Cn1nc(NS(C)(=O)=O)c2c(Cl)ccc(-n3c([C@H](Cc4cc(F)cc(F)c4)NC(=O)Cn4nc(C(F)F)c5c4C(F)(F)[C@@H]4C[C@H]54)nc4ncc(-c5cccc(C(F)(F)F)n5)cc4c3=O)c21` (atropisomer, axis not shown; (P)) [Example 1, N-((S)-1-((3P)-3-(4-chloro-1-methyl-3-(methylsulfonamido)-1H-indazol-7-yl)-4-oxo-6-(6-(trifluoromethyl)pyridin-2-yl)-3,4-dihydropyrido[2,3-d]pyrimidin-2-yl)-2-(3,5-difluorophenyl)ethyl)-2-((3bS,4aR)-3-(difluoromethyl)-5,5-difluoro-3b,4,4a,5-tetrahydro-1H-cyclopropa[3,4]cyclopenta[1,2-c]pyrazol-1-yl)acetamide], the concentration for a half-maximal effect (EC50) in the series with recombinant NL4-3 virus amounted to 0.055 nM. Besides, the half-maximal cytotoxic concentration (CC50) at 4 day in series [1] is greater than 100 nM.
The like results for `Cn1nc(NS(C)(=O)=O)c2c(Cl)ccc(-n3c([C@H](Cc4cc(F)cc(F)c4)NC(=O)Cn4nc(C(F)F)c5c4C(F)(F)[C@@H]4C[C@H]54)nc4ncc(-c5nccc(C(F)F)n5)cc4c3=O)c21` (atropisomer, axis not shown; (P)) [Example 2, N-((S)-1-((3P)-3-(4-chloro-1-methyl-3-(methylsulfonamido)-1H-indazol-7-yl)-6-(4-(difluoromethyl)pyrimidin-2-yl)-4-oxo-3,4-dihydropyrido[2,3-d]pyrimidin-2-yl)-2-(3,5-difluorophenyl)ethyl)-2-((3bS,4aR)-3-(difluoromethyl)-5,5-difluoro-3b,4,4a,5-tetrahydro-1H-cyclopropa[3,4]cyclopenta[1,2-c]pyrazol-1-yl)acetamide] were, in that order, 0.031 nM and greater than 100 nM.
The like results for `Cn1nc(NS(C)(=O)=O)c2c(Cl)ccc(-n3c([C@H](Cc4cc(F)cc(F)c4)NC(=O)Cn4nc(C(F)F)c5c4C(F)(F)[C@@H]4C[C@H]54)nc4ncc(-c5cccc(C(F)F)n5)cc4c3=O)c21` (atropisomer, axis not shown; (P)) [Example 3, N-((S)-1-((3P)-3-(4-chloro-1-methyl-3-(methylsulfonamido)-1H-indazol-7-yl)-6-(6-(difluoromethyl)pyridin-2-yl)-4-oxo-3,4-dihydropyrido[2,3-d]pyrimidin-2-yl)-2-(3,5-difluorophenyl)ethyl)-2-((3bS,4aR)-3-(difluoromethyl)-5,5-difluoro-3b,4,4a,5-tetrahydro-1H-cyclopropa[3,4]cyclopenta[1,2-c]pyrazol-1-yl)acetamide] were, in that order, 0.051 nM and greater than 100 nM.
On to `Cn1nc(NS(C)(=O)=O)c2c(Cl)ccc(-n3c([C@H](Cc4cc(F)cc(F)c4)NC(=O)Cn4nc(C(F)F)c5c4C(F)(F)[C@@H]4C[C@H]54)nc4nc(-c5csc(C(F)(F)F)n5)ccc4c3=O)c21` (atropisomer, axis not shown; (P)) [Example 4, N-((S)-1-((3P)-3-(4-chloro-1-methyl-3-(methylsulfonamido)-1H-indazol-7-yl)-4-oxo-7-(2-(trifluoromethyl)thiazol-4-yl)-3,4-dihydropyrido[2,3-d]pyrimidin-2-yl)-2-(3,5-difluorophenyl)ethyl)-2-((3bS,4aR)-3-(difluoromethyl)-5,5-difluoro-3b,4,4a,5-tetrahydro-1H-cyclopropa[3,4]cyclopenta[1,2-c]pyrazol-1-yl)acetamide], for which, in the series on recombinant NL4-3 virus, the 50% effective concentration (EC50) came out at 0.055 nM. This compound registered a half-maximal cytotoxic concentration (CC50) at 4 day in series [1] greater than 100 nM.
For the compound `Cn1nc(NS(C)(=O)=O)c2c(Cl)ccc(-n3c([C@H](Cc4cc(F)cc(F)c4)NC(=O)Cn4nc(C(F)F)c5c4C(F)(F)[C@@H]4C[C@H]54)nc4nc(-c5nccc(C(F)(F)F)n5)ccc4c3=O)c21` (atropisomer, axis not shown; (P)) [Example 5, N-((S)-1-((3P)-3-(4-chloro-1-methyl-3-(methylsulfonamido)-1H-indazol-7-yl)-4-oxo-7-(4-(trifluoromethyl)pyrimidin-2-yl)-3,4-dihydropyrido[2,3-d]pyrimidin-2-yl)-2-(3,5-difluorophenyl)ethyl)-2-((3bS,4aR)-3-(difluoromethyl)-5,5-difluoro-3b,4,4a,5-tetrahydro-1H-cyclopropa[3,4]cyclopenta[1,2-c]pyrazol-1-yl)acetamide], the EC50 in the series on recombinant NL4-3 virus came to 0.021 nM. The CC50 at 4 day in series [1] was greater than 100 nM.
Take `Cn1nc(NS(C)(=O)=O)c2c(Cl)ccc(-n3c([C@H](Cc4cc(F)cc(F)c4)NC(=O)Cn4nc(C(F)F)c5c4C(F)(F)[C@@H]4C[C@H]54)nc4nc(-c5nccc(C(F)F)n5)ccc4c3=O)c21` (atropisomer, axis not shown; (P)) [Example 6, N-((S)-1-((3P)-3-(4-chloro-1-methyl-3-(methylsulfonamido)-1H-indazol-7-yl)-7-(4-(difluoromethyl)pyrimidin-2-yl)-4-oxo-3,4-dihydropyrido[2,3-d]pyrimidin-2-yl)-2-(3,5-difluorophenyl)ethyl)-2-((3bS,4aR)-3-(difluoromethyl)-5,5-difluoro-3b,4,4a,5-tetrahydro-1H-cyclopropa[3,4]cyclopenta[1,2-c]pyrazol-1-yl)acetamide]: the 50% effective concentration (EC50) with recombinant NL4-3 virus stood at 0.023 nM. This compound also came in with a cytotoxic concentration (CC50) at 4 day in series [1] greater than 100 nM.
The like results for `Cc1nccnc1-c1ccc2c(=O)n(-c3ccc(Cl)c4c(NS(C)(=O)=O)nn(C)c34)c([C@H](Cc3cc(F)cc(F)c3)NC(=O)Cn3nc(C(F)F)c4c3C(F)(F)[C@@H]3C[C@H]43)nc2n1` (atropisomer, axis not shown; (P)) [Example 7, N-((S)-1-((3P)-3-(4-chloro-1-methyl-3-(methylsulfonamido)-1H-indazol-7-yl)-7-(3-methylpyrazin-2-yl)-4-oxo-3,4-dihydropyrido[2,3-d]pyrimidin-2-yl)-2-(3,5-difluorophenyl)ethyl)-2-((3bS,4aR)-3-(difluoromethyl)-5,5-difluoro-3b,4,4a,5-tetrahydro-1H-cyclopropa[3,4]cyclopenta[1,2-c]pyrazol-1-yl)acetamide] were, in that order, 0.02 nM and greater than 100 nM.
The like results for `Cn1nc(NS(C)(=O)=O)c2c(Cl)ccc(-n3c([C@H](Cc4cc(F)cc(F)c4)NC(=O)Cn4nc(C(F)F)c5c4C(F)(F)[C@@H]4C[C@H]54)nc4nc(-c5cnccn5)ccc4c3=O)c21` (atropisomer, axis not shown; (P)) [Example 8, N-((S)-1-((3P)-3-(4-chloro-1-methyl-3-(methylsulfonamido)-1H-indazol-7-yl)-4-oxo-7-(pyrazin-2-yl)-3,4-dihydropyrido[2,3-d]pyrimidin-2-yl)-2-(3,5-difluorophenyl)ethyl)-2-((3bS,4aR)-3-(difluoromethyl)-5,5-difluoro-3b,4,4a,5-tetrahydro-1H-cyclopropa[3,4]cyclopenta[1,2-c]pyrazol-1-yl)acetamide] were, in that order, 0.019 nM and greater than 100 nM.
Regarding `Cn1nc(NS(C)(=O)=O)c2c(Cl)ccc(-n3c([C@H](Cc4cc(F)cc(F)c4)NC(=O)Cn4nc(C(F)F)c5c4C(F)(F)[C@@H]4C[C@H]54)nc4nc(-c5cccc(C(F)(F)F)n5)ccc4c3=O)c21` (atropisomer, axis not shown; (P)) [Example 9, N-((S)-1-((3P)-3-(4-chloro-1-methyl-3-(methylsulfonamido)-1H-indazol-7-yl)-4-oxo-7-(6-(trifluoromethyl)pyridin-2-yl)-3,4-dihydropyrido[2,3-d]pyrimidin-2-yl)-2-(3,5-difluorophenyl)ethyl)-2-((3bS,4aR)-3-(difluoromethyl)-5,5-difluoro-3b,4,4a,5-tetrahydro-1H-cyclopropa[3,4]cyclopenta[1,2-c]pyrazol-1-yl)acetamide], the EC50 with recombinant NL4-3 virus worked out at 0.065 nM. The compound also returned a CC50 at 4 day in series [1] greater than 100 nM.
The like results for `Cc1ccnc(-c2ccc3c(=O)n(-c4ccc(Cl)c5c(NS(C)(=O)=O)nn(C)c45)c([C@H](Cc4cc(F)cc(F)c4)NC(=O)Cn4nc(C(F)F)c5c4C(F)(F)[C@@H]4C[C@H]54)nc3n2)n1` (atropisomer, axis not shown; (P)) [Example 10, N-((S)-1-((3P)-3-(4-chloro-1-methyl-3-(methylsulfonamido)-1H-indazol-7-yl)-7-(4-methylpyrimidin-2-yl)-4-oxo-3,4-dihydropyrido[2,3-d]pyrimidin-2-yl)-2-(3,5-difluorophenyl)ethyl)-2-((3bS,4aR)-3-(difluoromethyl)-5,5-difluoro-3b,4,4a,5-tetrahydro-1H-cyclopropa[3,4]cyclopenta[1,2-c]pyrazol-1-yl)acetamide] were, in that order, 0.03 nM and greater than 100 nM.
